In article PMC6533482, “Xanthatin inhibits STAT3 and NF‐κB signalling by covalently binding to JAK and IKK kinases” (Journal of Cellular and Molecular Medicine, 2019):

Tests used:
Tyk2 [1] = target: T1, Tyk2 (Homo sapiens, UniProt P29597); experiment: click-chemistry pull-down from treated cells, competed by xanthatin; format: cell-based
T1 construct: endogenous, MDA-MB-231 cells

JAK1 [2] = target: T2, JAK1 (Homo sapiens, UniProt P23458); experiment: as above; format: cell-based
T2 construct: endogenous, MDA-MB-231 cells
T2 sequence (P23458 whole entry): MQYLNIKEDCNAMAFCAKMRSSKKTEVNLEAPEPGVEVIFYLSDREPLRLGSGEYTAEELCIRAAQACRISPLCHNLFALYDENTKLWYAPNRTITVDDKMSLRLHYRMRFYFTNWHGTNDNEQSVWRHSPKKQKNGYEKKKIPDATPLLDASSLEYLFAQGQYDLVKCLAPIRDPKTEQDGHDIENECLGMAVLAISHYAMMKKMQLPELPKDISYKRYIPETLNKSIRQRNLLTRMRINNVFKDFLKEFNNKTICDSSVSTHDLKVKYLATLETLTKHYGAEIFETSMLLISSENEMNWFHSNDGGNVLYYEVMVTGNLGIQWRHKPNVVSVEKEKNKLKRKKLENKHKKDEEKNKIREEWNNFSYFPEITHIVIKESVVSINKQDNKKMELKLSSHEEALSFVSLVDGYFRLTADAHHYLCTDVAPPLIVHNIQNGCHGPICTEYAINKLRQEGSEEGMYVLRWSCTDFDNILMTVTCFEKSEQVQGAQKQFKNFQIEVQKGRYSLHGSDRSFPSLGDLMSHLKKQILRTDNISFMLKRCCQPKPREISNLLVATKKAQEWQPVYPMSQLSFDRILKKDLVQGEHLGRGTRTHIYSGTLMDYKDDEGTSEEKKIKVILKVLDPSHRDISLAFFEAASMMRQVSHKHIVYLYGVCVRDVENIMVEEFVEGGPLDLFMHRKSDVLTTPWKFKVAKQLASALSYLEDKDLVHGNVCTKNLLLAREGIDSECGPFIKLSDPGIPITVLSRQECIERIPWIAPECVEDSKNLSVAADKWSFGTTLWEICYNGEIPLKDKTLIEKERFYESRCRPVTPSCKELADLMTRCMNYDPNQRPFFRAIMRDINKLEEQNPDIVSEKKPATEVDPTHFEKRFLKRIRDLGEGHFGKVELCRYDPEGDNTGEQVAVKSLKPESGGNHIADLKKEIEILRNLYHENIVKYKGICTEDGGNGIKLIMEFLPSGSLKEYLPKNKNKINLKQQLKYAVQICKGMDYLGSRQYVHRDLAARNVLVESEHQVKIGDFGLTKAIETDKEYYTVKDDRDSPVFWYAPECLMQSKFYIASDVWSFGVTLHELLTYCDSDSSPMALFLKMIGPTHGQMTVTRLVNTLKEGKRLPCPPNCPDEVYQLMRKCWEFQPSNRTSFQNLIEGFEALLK

IKKα [3] = target: T3, IKKα (Homo sapiens, UniProt O15111); experiment: as above; format: cell-based
T3 construct: gene CHUK; endogenous, MDA-MB-231 cells
T3 sequence (O15111 1-745): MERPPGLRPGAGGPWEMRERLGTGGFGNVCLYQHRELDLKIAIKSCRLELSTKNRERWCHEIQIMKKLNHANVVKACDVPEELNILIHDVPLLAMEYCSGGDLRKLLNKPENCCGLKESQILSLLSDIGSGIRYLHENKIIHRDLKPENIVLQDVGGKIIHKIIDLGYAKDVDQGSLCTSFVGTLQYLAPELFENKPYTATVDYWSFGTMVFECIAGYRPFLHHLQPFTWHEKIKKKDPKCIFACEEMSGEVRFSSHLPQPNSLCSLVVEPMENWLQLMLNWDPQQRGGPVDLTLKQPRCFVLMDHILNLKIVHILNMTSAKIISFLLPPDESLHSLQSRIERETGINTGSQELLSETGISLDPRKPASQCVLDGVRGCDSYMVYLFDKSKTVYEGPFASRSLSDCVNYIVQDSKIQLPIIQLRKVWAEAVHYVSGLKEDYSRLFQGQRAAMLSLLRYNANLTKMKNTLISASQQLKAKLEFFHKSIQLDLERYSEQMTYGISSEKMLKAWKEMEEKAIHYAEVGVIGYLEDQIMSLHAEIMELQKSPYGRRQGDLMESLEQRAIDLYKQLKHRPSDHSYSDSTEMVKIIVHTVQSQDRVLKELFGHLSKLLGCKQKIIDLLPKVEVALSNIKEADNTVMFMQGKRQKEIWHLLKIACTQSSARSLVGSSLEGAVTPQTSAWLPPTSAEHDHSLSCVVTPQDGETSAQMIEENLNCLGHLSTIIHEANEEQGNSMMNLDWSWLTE

JAK2 [4] = target: T4, JAK2 (Homo sapiens, UniProt O60674); experiment: in-gel fluorescence after click labelling of immunoprecipitated protein; format: binding
T4 construct: JAK2-FLAG immunoprecipitated from HEK293 cells
T4 sequence (O60674 whole entry): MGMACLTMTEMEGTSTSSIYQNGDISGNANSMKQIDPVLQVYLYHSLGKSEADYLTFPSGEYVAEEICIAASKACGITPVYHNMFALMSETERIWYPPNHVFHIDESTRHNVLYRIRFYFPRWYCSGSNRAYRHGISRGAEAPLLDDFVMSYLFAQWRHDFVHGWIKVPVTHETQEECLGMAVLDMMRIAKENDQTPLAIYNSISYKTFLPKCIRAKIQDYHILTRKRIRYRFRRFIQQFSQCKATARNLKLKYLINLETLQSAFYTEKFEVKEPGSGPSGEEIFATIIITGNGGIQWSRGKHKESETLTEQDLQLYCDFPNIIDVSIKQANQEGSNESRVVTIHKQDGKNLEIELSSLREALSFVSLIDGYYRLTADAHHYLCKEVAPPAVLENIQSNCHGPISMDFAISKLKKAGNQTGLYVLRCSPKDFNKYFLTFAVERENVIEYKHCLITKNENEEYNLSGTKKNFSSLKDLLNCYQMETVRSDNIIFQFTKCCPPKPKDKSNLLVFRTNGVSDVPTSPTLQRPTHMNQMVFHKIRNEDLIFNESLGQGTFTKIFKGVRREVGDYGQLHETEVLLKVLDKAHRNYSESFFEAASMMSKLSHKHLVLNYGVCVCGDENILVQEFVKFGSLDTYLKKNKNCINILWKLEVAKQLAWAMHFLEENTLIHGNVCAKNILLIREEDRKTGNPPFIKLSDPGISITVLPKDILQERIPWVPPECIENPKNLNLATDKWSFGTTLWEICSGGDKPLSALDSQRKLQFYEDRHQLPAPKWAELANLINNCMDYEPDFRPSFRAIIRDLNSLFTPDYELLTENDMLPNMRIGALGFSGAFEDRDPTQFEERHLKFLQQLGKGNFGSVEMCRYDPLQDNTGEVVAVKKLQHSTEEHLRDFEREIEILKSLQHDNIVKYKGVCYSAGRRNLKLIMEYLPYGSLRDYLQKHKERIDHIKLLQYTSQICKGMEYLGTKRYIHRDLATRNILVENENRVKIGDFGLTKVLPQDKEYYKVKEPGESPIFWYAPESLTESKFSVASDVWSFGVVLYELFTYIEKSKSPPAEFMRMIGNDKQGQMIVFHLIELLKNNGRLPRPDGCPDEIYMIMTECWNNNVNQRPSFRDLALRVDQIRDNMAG

IKKβ [5] = target: T5, IKKβ (Homo sapiens, UniProt O14920); experiment: as above; format: binding
T5 construct: gene IKBKB; IKKβ-FLAG immunoprecipitated from HEK293 cells
T5 sequence (O14920 1-756): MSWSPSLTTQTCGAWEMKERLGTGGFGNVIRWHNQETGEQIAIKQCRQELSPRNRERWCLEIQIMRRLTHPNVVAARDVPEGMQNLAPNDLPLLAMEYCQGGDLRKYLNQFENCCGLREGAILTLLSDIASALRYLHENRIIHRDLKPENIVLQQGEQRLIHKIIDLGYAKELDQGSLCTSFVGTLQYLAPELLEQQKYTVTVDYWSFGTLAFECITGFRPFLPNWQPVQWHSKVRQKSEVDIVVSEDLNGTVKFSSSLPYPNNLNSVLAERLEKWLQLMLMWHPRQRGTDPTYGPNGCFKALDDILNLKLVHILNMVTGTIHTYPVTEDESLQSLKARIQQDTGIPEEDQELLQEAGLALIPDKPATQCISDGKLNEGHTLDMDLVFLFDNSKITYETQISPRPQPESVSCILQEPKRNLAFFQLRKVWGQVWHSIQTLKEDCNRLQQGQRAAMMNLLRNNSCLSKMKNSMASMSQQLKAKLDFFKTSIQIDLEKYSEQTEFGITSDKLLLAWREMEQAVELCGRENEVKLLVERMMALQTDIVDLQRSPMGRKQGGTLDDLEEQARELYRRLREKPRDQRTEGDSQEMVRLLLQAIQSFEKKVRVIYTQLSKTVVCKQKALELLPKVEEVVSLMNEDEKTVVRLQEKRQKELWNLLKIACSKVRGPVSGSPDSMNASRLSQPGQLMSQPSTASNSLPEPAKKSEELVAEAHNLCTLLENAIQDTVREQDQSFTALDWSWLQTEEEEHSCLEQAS

JAK1 [6] = target: T2, JAK1; experiment: competition of Alk-Xa pull-down in cells; format: cell-based
IKKβ [7] = target: T5, IKKβ; experiment: in vitro kinase assay with immunoprecipitated IKKβ; adducts confirmed by LC-MS/MS; format: biochemical
Tyk2 [8] = target: T1, Tyk2; experiment: competition of Alk-Xa pull-down in cells; format: cell-based
JAK2 [9] = target: T4, JAK2; experiment: in vitro kinase assay with immunoprecipitated JAK2; adduct confirmed by LC-MS/MS; format: biochemical
IKKα [10] = target: T3, IKKα; experiment: competition of Alk-Xa pull-down in cells; format: cell-based

T1 sequence (P29597 whole entry): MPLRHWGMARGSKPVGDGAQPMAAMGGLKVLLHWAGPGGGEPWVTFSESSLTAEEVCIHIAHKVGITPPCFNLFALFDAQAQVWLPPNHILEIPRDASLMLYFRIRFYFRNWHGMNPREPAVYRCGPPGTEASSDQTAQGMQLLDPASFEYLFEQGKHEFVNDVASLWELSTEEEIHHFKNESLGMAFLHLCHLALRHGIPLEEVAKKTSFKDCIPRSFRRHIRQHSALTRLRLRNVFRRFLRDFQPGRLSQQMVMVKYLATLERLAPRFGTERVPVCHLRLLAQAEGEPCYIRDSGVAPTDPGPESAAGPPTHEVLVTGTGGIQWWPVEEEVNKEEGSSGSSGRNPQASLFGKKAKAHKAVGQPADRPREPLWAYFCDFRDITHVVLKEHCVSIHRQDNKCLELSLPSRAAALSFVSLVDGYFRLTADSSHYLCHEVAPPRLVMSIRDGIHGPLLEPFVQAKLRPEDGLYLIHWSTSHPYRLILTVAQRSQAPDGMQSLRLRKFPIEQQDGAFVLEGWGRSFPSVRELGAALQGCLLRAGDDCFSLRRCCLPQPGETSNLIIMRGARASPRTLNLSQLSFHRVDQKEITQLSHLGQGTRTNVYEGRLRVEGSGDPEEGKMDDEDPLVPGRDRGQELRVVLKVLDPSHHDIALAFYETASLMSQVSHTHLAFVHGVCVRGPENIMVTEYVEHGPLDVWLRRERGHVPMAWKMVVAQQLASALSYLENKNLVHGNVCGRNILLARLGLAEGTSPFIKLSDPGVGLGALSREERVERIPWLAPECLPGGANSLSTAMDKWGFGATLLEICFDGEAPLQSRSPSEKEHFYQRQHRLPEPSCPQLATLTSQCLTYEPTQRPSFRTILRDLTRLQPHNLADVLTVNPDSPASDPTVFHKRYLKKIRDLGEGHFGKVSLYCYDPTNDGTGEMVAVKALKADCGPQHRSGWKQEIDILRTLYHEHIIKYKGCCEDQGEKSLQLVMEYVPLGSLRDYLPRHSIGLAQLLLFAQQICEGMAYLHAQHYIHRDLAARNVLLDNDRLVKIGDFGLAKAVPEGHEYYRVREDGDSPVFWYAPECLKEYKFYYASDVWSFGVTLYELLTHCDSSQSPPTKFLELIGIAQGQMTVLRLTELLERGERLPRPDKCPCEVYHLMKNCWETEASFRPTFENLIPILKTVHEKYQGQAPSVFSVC

## C#CCNC(=O)/C=C/C1=CC[C@@H]2C(=C)C(=O)O[C@H]2C[C@@H]1C [Alk-Xa, Alk‐Xa]
Tyk2 [1]
  click-chemistry pull-down from treated cells, competed by xanthatin: JAK1, JAK2, Tyk2, IKKα and IKKβ were pulled down with the Alk‐Xa
JAK1 [2]
  click-chemistry pull-down from treated cells, competed by xanthatin: JAK1, JAK2, Tyk2, IKKα and IKKβ were pulled down with the Alk‐Xa
IKKα [3]
  click-chemistry pull-down from treated cells, competed by xanthatin: JAK1, JAK2, Tyk2, IKKα and IKKβ were pulled down with the Alk‐Xa
JAK2 [4]
  in-gel fluorescence after click labelling of immunoprecipitated protein: fluorescence intensity of JAK2 and IKKβ was proportional to the dosage of Alk‐Xa, indicating that Alk‐Xa covalently bound
IKKβ [5]
  in-gel fluorescence after click labelling of immunoprecipitated protein: fluorescence intensity of JAK2 and IKKβ was proportional to the dosage of Alk‐Xa, indicating that Alk‐Xa covalently bound

## C=C1C(=O)O[C@H]2C[C@H](C)C(/C=C/C(C)=O)=CC[C@H]12 [Xa, xanthatin]
JAK1 [6]
  competition of Alk-Xa pull-down in cells: the interactions could be competed away by excessive unlabelled xanthatin
IKKβ [7]
  IC50: 11.3 µM
Tyk2 [8]
  competition of Alk-Xa pull-down in cells: the interactions could be competed away by excessive unlabelled xanthatin
JAK2 [9]
  IC50: 4.08 µM
IKKα [10]
  competition of Alk-Xa pull-down in cells: the interactions could be competed away by excessive unlabelled xanthatin
